“Also recorded” adds a separate entry of the source.
Tested on: human transverse colon epithelial cells
Test: Transepithelial electrical resistance (TEER) of transverse colon monolayers treated with TNFα
Format: cell-based
Conditions: for change in TEER as a result of TNF administration: with TNFα, 10, 20, 40 μM, after 48 hours, relative to t=0; for TEER: with TNF
From the text: Cell Information: Donor 5 Transverse Colon, HISC-0033, Passage 10. Plated onto 4×96-well RepliGut® transwell plates coated with thin hydrogel coating. 2× RepliGut® transwell plates had 1.0 μm pore size (Corning 3380) and 2× RepliGut® transwell plates had 0.4 μm pore size (Corning 7369).
Compound Information: TNFα was supplied by Allis Biosystems and reconstituted according to the manufacturer's instructions. All other compounds were provided by Brightseed in DMSO (Table 1). Stocks were created for each treatment (Table 2) so that the final concentration of an individual compound in the culture media was 0.1% media volume for all compounds.
Proliferative human transverse colon epithelial cells were plated in Altis Expansion media using Altis-established protocols onto 4×96-well RepliGut® transwell plates coated with a thin layer of hydrogel. Cultures were monitored every day using a bright field microscope. Transverse colon epithelial monolayers became confluent on Day 4, at which point media was changed to Altis Differentiation media. The cells were cultured for an additional 2 days. Brightseed compounds and TNFα, listed in Table 2, were diluted in Altis Differentiation media, mixed well, and added to apical and basal compartment of transwell cultures at t=0 hours. All conditions were performed in triplicate. Cells were treated with compounds for a total of 48 hours.
Transepithelial electrical resistance was measured in all transwell cultures at t=0 hours prior to the addition of compounds to determine baseline TEER using an Epithelial Volt/Ohm Meter (World Precision Instruments, EVOM2) and STX100C96 Electrode. TEER was also measured at t=24 hours, t=45 hours, and t=48 hours. The surface area of a 96-well transwell is 0.143 cm^2 per well. Corrected TEER was calculated using the formula below.
(Raw measured TEER of sample transwell−Raw measured TEER of blank transwell)×Surface Area
Statistical analysis was performed using GraphPad Prism software version 9.4.1 (GraphPad Inc., La Jolla, CA, USA). Two-way ANOVA of means from n=3 samples per group was performed to measure simple effects within treatment groups. Tukey's range test was performed to correct for multiple comparisons. Differences between the groups were considered significant at p<0.05.

[1] = FIGS. 1-12 (TEER and permeability)

Structure (SMILES)	optimal concentration of the study [1]	rank of effect among the test articles [1]	change in TEER as a result of TNF administration	change in TEER as a result of TNF administration (listed as NCT)	TEER (10 μM)	TEER (20 and 40 μM)	change in TEER as a result of TNF administration (listed as NFT)
O=C(/C=C/c1ccc(O)c(O)c1)NCCc1ccc(O)cc1 [Compound 1, N-trans-caffeoyltyramine]	40 µM	greatest effect	dose-dependent and statistically significant reversal of this decrease	improved the change in TEER as a result of TNF administration in a dose-dependent manner; also recorded: protected against (a) decreased TEER	–	–	–
COc1cc(/C=C/C(=O)NCCc2ccc(O)cc2)ccc1O [Compound 2, N-trans-feruloyltyramine]	–	–	dose-dependent and statistically significant reversal of this decrease	–	improved TEER	did not show the same dose-dependent effect	protected against (a) decreased TEER

Reference: patent US20250205182A1, “COMPOSITIONS AND METHODS FOR IMPROVING GUT PERMEABILITY” (BRIGHTSEED, INC., priority 2022, published 2025)
